22 molecules from PubChem BioAssay AID256 (DTP/NCI, 2004) can be followed below.

“And” between values parts separate entries of the source, which are not always exact repeats. Equal entries are not always repeated. Toxic doses and inconclusive results are not listed.

The test system of the assay is CD2F1 mice, L1210 leukemia ip, survival T/C. The assay is described as follows: NCI In Vivo Anticancer Drug Screen. Data for tumor model L1210 Leukemia (intraperitoneal) in CD2F1 (CDF1) mice. The settings on record: higher = longer survival. The method in brief:
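Mice carrying a transplanted tumor received test compound or vehicle alone. The value is the measurement in the treated group divided by that in the vehicle-treated control group.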

Setting [1] is: endpoint: mean survival time, dose: 12.5 mg/kg/injection, schedule: Q01DX009 (ip), vehicle: saline with Tween-80.
Setting [2] is: endpoint: mean survival time, dose: 25.0 mg/kg/injection, schedule: Q01DX009 (ip), vehicle: saline with Tween-80.
The mark [3] stands for this setting: endpoint: mean survival time, dose: 50.0 mg/kg/injection, schedule: Q01DX009 (ip), vehicle: saline with Tween-80.
Where [4] appears, read: endpoint: mean survival time, dose: 100.0 mg/kg/injection, schedule: Q01DX009 (ip), vehicle: saline with Tween-80.
Where [5] appears, read: endpoint: mean survival time, dose: 200.0 mg/kg/injection, schedule: Q01DX009 (ip), vehicle: saline with Tween-80.
Where [6] appears, read: endpoint: mean survival time, dose: 100.0 mg/kg/injection, schedule: Q04DX003 (ip), vehicle: saline with Tween-80.
The mark [7] stands for this setting: endpoint: mean survival time, dose: 200.0 mg/kg/injection, schedule: Q04DX003 (ip), vehicle: saline with Tween-80.
Where [8] appears, read: endpoint: mean survival time, dose: 100.0 mg/kg/injection, schedule: Q01DX001 (ip), vehicle: saline with Tween-80.
[9] abbreviates: endpoint: mean survival time, dose: 200.0 mg/kg/injection, schedule: Q01DX001 (ip), vehicle: saline with Tween-80.
[10] abbreviates: endpoint: mean survival time, dose: 400.0 mg/kg/injection, schedule: Q01DX009 (ip), vehicle: saline with Tween-80.
Where [11] appears, read: endpoint: mean survival time, dose: 400.0 mg/kg/injection, schedule: Q04DX003 (ip), vehicle: saline with Tween-80.
The mark [12] stands for this setting: endpoint: mean survival time, dose: 100.0 mg/kg/injection, schedule: Q01DX009 (ip), vehicle: Klucel (hydroxypropylcellulose) (HPC).
Setting [13] is: endpoint: mean survival time, dose: 50.0 mg/kg/injection, schedule: Q01DX009 (ip), vehicle: Klucel (hydroxypropylcellulose) (HPC).
The mark [14] stands for this setting: endpoint: mean survival time, dose: 200.0 mg/kg/injection, schedule: Q01DX009 (ip), vehicle: Klucel (hydroxypropylcellulose) (HPC).
Where [15] appears, read: endpoint: mean survival time, dose: 400.0 mg/kg/injection, schedule: Q01DX001 (ip), vehicle: saline with Tween-80.

With `O=C1NC(O)c2ccccc2O1` (stereo unspecified), the T/C is 101 % of control under setting [1]; 95 % of control (endpoint: mean survival time, dose: 12.5 mg/kg/injection, schedule: Q01DX009 (ip), vehicle: suspension in saline); 96 % of control under setting [2]; 97 % of control (endpoint: mean survival time, dose: 25.0 mg/kg/injection, schedule: Q01DX009 (ip), vehicle: suspension in saline); 98 % of control under setting [3]; 104 % of control (endpoint: mean survival time, dose: 50.0 mg/kg/injection, schedule: Q01DX009 (ip), vehicle: suspension in saline). The T/C is 101 % of control and 108 % of control under setting [4]; 101 % of control (endpoint: mean survival time, dose: 100.0 mg/kg/injection, schedule: Q01DX009 (ip), vehicle: suspension in saline); 115 % of control and 106 % of control under setting [5]; 119 % of control (endpoint: mean survival time, dose: 200.0 mg/kg/injection, schedule: Q01DX009 (ip), vehicle: suspension in saline); 95 % of control (endpoint: mean survival time, dose: 400.0 mg/kg/injection, schedule: Q01DX009 (ip), vehicle: suspension in saline).
With `CCCCNC(C)(C)C(SSC(c1ccc(Cl)cc1)C(C)(C)NCCCC)c1ccc(Cl)cc1` (stereo unspecified), the T/C reads like this: (endpoint: mean survival time, dose: 6.25 mg/kg/injection, schedule: Q01DX009 (ip), vehicle: saline with Tween-80) 96 % of control; under setting [1], 98 % of control; under setting [2], 96 % of control and 100 % of control; (endpoint: mean survival time, dose: 25.0 mg/kg/injection, schedule: Q04DX003 (ip), vehicle: saline with Tween-80) 90 % of control; (endpoint: mean survival time, dose: 50.0 mg/kg/injection, schedule: Q04DX003 (ip), vehicle: saline with Tween-80) 92 % of control; under setting [6], 95 % of control and 96 % of control.
Consider `CC(C)(C)OC(=O)NC(Cc1c[nH]c2ccccc12)C(=O)ON1C(=O)CCC1=O` (stereo unspecified), for which the T/C under setting [6] was 95 % of control and the T/C under setting [7] is 95 % of control.
As to `CNC(=O)c1ccccc1N=NN(C)C`, the T/C (endpoint: mean survival time, dose: 18.75 mg/kg/injection, schedule: Q01DX009 (ip), vehicle: Klucel (hydroxypropylcellulose) (HPC)) is 98 % of control and 103 % of control and 106 % of control; the T/C (endpoint: mean survival time, dose: 37.5 mg/kg/injection, schedule: Q01DX009 (ip), vehicle: Klucel (hydroxypropylcellulose) (HPC)) is 122 % of control and 98 % of control and 105 % of control; the T/C (endpoint: mean survival time, dose: 75.0 mg/kg/injection, schedule: Q01DX009 (ip), vehicle: Klucel (hydroxypropylcellulose) (HPC)) was 122 % of control.
Consider `O/N=C1/C2CCC(C2)C1C(O)(C(F)(F)F)C(F)(F)F` (stereo unspecified), for which the T/C was 93 % of control under setting [3]; 102 % of control under setting [8]; 101 % of control under setting [4]; 92 % of control under setting [9]; 89 % of control under setting [5].
On to `CCC1(c2ccc(O)cc2)C(=O)NC(=O)NC1=O`, for which the T/C (endpoint: mean survival time, dose: 100.0 mg/kg/injection, schedule: Q01DX001 (ip), vehicle: saline) is 96 % of control; the T/C (endpoint: mean survival time, dose: 200.0 mg/kg/injection, schedule: Q01DX001 (ip), vehicle: saline) is 89 % of control; the T/C (endpoint: mean survival time, dose: 400.0 mg/kg/injection, schedule: Q01DX001 (ip), vehicle: saline) was 96 % of control.
Regarding `O=c1c(Cl)cc(Cl)cn1S(=O)(=O)c1ccc([N+](=O)[O-])cc1`, the T/C is 100 % of control under setting [4]; 102 % of control under setting [6]; 102 % of control under setting [5]; 102 % of control under setting [7]; 98 % of control under setting [10]; 101 % of control under setting [11].
As for `O=CN(CCNc1ccccc1)c1ccccc1`, the T/C is, setting by setting: under setting [6], 96 % of control; under setting [7], 101 % of control; under setting [11], 95 % of control.
On to `N#CC(=C1CCCCC1)c1ccccc1`, for which the T/C (endpoint: mean survival time, dose: 75.0 mg/kg/injection, schedule: Q01DX001 (ip), vehicle: saline) was 98 % of control; the T/C (endpoint: mean survival time, dose: 150.0 mg/kg/injection, schedule: Q01DX001 (ip), vehicle: saline) was 104 % of control; the T/C (endpoint: mean survival time, dose: 300.0 mg/kg/injection, schedule: Q01DX001 (ip), vehicle: saline) was 96 % of control.
`CC(=O)N/N=C\C1=CCC=C(Br)S1`: the T/C runs as follows: under setting [3], 107 % of control; under setting [8], 93 % of control; under setting [4], 107 % of control; under setting [9], 102 % of control; under setting [5], 116 % of control.
For the molecule `CC(C)(C=O)CNC(C)(C)C`, the T/C reads like this: under setting [6], 105 % of control; under setting [7], 96 % of control.
For the molecule `CC1=CC(=Nc2ccc(N(CCCl)CCCl)cc2)C=C(C)C1=O`, the T/C reads like this: (endpoint: mean survival time, dose: 6.25 mg/kg/injection, schedule: Q01DX009 (ip), vehicle: Klucel (hydroxypropylcellulose) (HPC)) 115 % of control and 108 % of control; under setting [12], 86 % of control and 96 % of control.
Take `CN(C)CCNc1ccc(NCCN(C)C)c2c1C(=O)c1ccccc1C2=O`: the T/C is 104 % of control (endpoint: mean survival time, dose: 3.75 mg/kg/injection, schedule: Q01DX009 (ip), vehicle: saline with Tween-80); 107 % of control (endpoint: mean survival time, dose: 7.5 mg/kg/injection, schedule: Q01DX009 (ip), vehicle: saline with Tween-80); 117 % of control (endpoint: mean survival time, dose: 15.0 mg/kg/injection, schedule: Q01DX009 (ip), vehicle: saline with Tween-80); 150 % of control (endpoint: mean survival time, dose: 30.0 mg/kg/injection, schedule: Q01DX009 (ip), vehicle: saline with Tween-80); 100 % of control (endpoint: mean survival time, dose: 60.0 mg/kg/injection, schedule: Q01DX009 (ip), vehicle: saline with Tween-80).
Turning to `C(CCSC1=NCCN1)CCSC1=NCCN1`, the T/C is, setting by setting: (endpoint: mean survival time, dose: 25.0 mg/kg/injection, schedule: Q01DX009 (ip), vehicle: saline) 97 % of control; (endpoint: mean survival time, dose: 50.0 mg/kg/injection, schedule: Q01DX009 (ip), vehicle: saline) 103 % of control; (endpoint: mean survival time, dose: 100.0 mg/kg/injection, schedule: Q01DX009 (ip), vehicle: saline) 100 % of control.
On to `CNc1nc(NC)nc(NC)n1`, for which the T/C (endpoint: mean survival time, dose: 12.5 mg/kg/injection, schedule: Q01DX009 (ip), vehicle: Klucel (hydroxypropylcellulose) (HPC)) was 95 % of control; the T/C (endpoint: mean survival time, dose: 25.0 mg/kg/injection, schedule: Q01DX009 (ip), vehicle: Klucel (hydroxypropylcellulose) (HPC)) was 97 % of control; the T/C under setting [13] was 97 % of control; the T/C under setting [12] was 100 % of control; the T/C under setting [14] was 103 % of control.
In the case of `CCCCCCCCC(=O)N1CCOCC1`, the T/C by setting is: under setting [4], 108 % of control; (endpoint: mean survival time, dose: 150.0 mg/kg/injection, schedule: Q04DX003 (ip), vehicle: saline) 96 % of control.
For `O=C1Nc2ccccc2/C1=C\c1ccccc1O`, the T/C is, setting by setting: under setting [13], 93 % of control; under setting [12], 87 % of control; under setting [14], 96 % of control; (endpoint: mean survival time, dose: 400.0 mg/kg/injection, schedule: Q01DX009 (ip), vehicle: Klucel (hydroxypropylcellulose) (HPC)) 96 % of control.
Regarding `OC1CCSc2ccc3ccccc3c21` (stereo unspecified), the T/C was 108 % of control under setting [8], 105 % of control under setting [9] and 103 % of control under setting [15].
For `c1ccc2nc3c(nc2c1)[nH]c1ccccc13`, in that order: 100 % of control, 92 % of control and 89 % of control.
As to `CSc1nc(NC2OC(CO)C(O)C(O)C2O)c(I)c(=O)n1C` (stereo unspecified), the T/C runs as follows: (endpoint: median survival time, dose: 12.5 mg/kg/injection, schedule: Q01DX005 (ip), vehicle: saline with Tween-80) 100 % of control; (endpoint: median survival time, dose: 25.0 mg/kg/injection, schedule: Q01DX005 (ip), vehicle: saline with Tween-80) 100 % of control; (endpoint: median survival time, dose: 50.0 mg/kg/injection, schedule: Q01DX005 (ip), vehicle: saline with Tween-80) 103 % of control; (endpoint: median survival time, dose: 100.0 mg/kg/injection, schedule: Q01DX005 (ip), vehicle: saline with Tween-80) 107 % of control; (endpoint: median survival time, dose: 200.0 mg/kg/injection, schedule: Q01DX005 (ip), vehicle: saline with Tween-80) 119 % of control.
As to `CCCCCCCCCCCCCC(=O)N1CCOCC1`, the T/C under setting [4] is 96 % of control; the T/C under setting [6] is 97 % of control; the T/C under setting [5] was 96 % of control; the T/C under setting [7] was 95 % of control; the T/C under setting [10] is 100 % of control; the T/C under setting [11] is 97 % of control.
For `CCOC(=O)CCC(NC(=O)OCCNCCCl)C(=O)OCC` (stereo unspecified), the T/C was 100 % of control (endpoint: mean survival time, dose: 40.0 mg/kg/injection, schedule: Q01DX Z (ip), vehicle: saline); 96 % of control (endpoint: mean survival time, dose: 80.0 mg/kg/injection, schedule: Q01DX Z (ip), vehicle: saline); 103 % of control (endpoint: mean survival time, dose: 160.0 mg/kg/injection, schedule: Q01DX Z (ip), vehicle: saline); 117 % of control (endpoint: mean survival time, dose: 320.0 mg/kg/injection, schedule: Q01DX Z (ip), vehicle: saline).
